The first assay deals with T1, IKBKB (IKKβ) (Homo sapiens, UniProt O14920).
T1 construct: purchased Life Technologies (assay performed by the vendor)
T1 sequence (O14920 1-756): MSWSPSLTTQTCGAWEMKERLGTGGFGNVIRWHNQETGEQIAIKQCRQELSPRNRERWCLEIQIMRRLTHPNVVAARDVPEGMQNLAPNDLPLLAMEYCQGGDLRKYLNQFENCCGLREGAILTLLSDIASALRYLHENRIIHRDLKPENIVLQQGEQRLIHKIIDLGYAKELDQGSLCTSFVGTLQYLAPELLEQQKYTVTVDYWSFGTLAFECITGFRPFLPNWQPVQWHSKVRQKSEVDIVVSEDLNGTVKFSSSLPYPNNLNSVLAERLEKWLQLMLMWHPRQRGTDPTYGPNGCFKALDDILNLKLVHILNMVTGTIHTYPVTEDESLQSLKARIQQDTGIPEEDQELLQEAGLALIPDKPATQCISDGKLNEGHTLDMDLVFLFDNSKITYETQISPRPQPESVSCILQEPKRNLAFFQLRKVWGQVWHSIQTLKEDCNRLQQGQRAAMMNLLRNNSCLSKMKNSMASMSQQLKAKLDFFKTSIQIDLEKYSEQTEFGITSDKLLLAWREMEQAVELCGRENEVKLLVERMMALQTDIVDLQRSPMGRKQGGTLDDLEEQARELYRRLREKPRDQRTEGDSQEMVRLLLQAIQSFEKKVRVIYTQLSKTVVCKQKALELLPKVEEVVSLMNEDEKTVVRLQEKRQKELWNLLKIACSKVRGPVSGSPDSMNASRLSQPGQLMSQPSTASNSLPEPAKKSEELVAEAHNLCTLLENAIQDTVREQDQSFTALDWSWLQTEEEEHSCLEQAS
As to the kind of experiment: Z'-LYTE IKKβ assay (Life Technologies). The format is biochemical.
Conditions: not given
The procedure: IKKα and IKKβ inhibitory activity was determined using three different assays: a dissociation enhanced ligand fluorescent immunoassay (DELFIA) based on the protocol of HTScan™ IKKβ Kinase Assay (Cell Signaling Technology, USA); an Adapta IKKα assay (performed by Life Technologies); a Z′-LYTE™ IKKβ assay (performed by Life Technologies).
The reaction was performed in low volume NBS, black 384-well plates (Corning model 4514).
The test compounds were screened in 1% DMSO (final) in the well. For 10 point titrations, 3-fold serial dilutions were conducted from the starting concentration of 50 mM.
The 2× IKBKB (IKKβ)/Ser/Thr 05 mixture was prepared in 50 mM HEPES pH 7.5, 0.01% BRIJ-35, 10 mM MgCl2, 1 mM EGTA. The final 10 μL Kinase Reaction consisted of 0.62-4 ng IKBKB (IKKβ) and 2 μM Ser/Thr 05 in 50 mM HEPES pH 7.5, 0.01% BRIJ-35, 10 mM MgCl2, 1 mM EGTA.
5 μL of 2× Kinase reaction was incubated with 2.5 μL of ATP solution diluted to a 4× working concentration in Kinase Buffer (50 mM HEPES pH 7.5, 0.01% BRIJ-35, 10 mM MgCl2, 1 mM EGTA) in the presence of […] of 100× test compound in 100% DMSO and 2.4 μL of Kinase buffer.
The resulting kinase reaction was allowed to incubate for 1 hour at room temperature before 5 μL of a 1:64 dilution of Development Reagent B was added and the resulting Development Reaction was incubated for another hour at room temperature. Then the plate was read on a fluorescence plate reader and the data analysed.
A ratiometric method, which calculated the Emission Ratio of donor emission (i.e. coumarin) to acceptor emission (i.e. fluorescein) after excitation of the donor fluorophore at 400 nm, was used to quantitate reaction progress, as shown in the equation below.
In turn, `C#Cc1cc(-c2ccnc3[nH]ccc23)cc2c(N)n[nH]c12` [Example 200, 7-Ethynyl-5-(1H-pyrrolo[2,3-b]pyridin-4-yl)-1H-indazol-3-amine] registered an IC50 of 0.158 µM.

`CC(C)(C)C#Cc1cc(-c2ccnc3[nH]ccc23)cc2c(N)n[nH]c12` [Example 201, 7-(3,3-Dimethylbut-1-yn-1-yl)-5-(1H-pyrrolo[2,3-b]pyridin-4-yl)-1H-indazol-3-amine] returned an IC50 of 1.2 µM.

`Nc1n[nH]c2c(C#CC3CC3)cc(-c3ccnc4[nH]ccc34)cc12` [Example 202, 7-(Cyclopropylethynyl)-5-(1H-pyrrolo[2,3-b]pyridin-4-yl)-1H-indazol-3-amine] registered an IC50 of 0.47 µM.

Consider `Nc1n[nH]c2c(C#CC3CCCC3)cc(-c3ccnc4[nH]ccc34)cc12` [Example 203, 7-(Cyclopentylethynyl)-5-(1H-pyrrolo[2,3-b]pyridin-4-yl)-1H-indazol-3-amine], for which the IC50 turned out to be 1.53 µM.

Take `Nc1n[nH]c2c(C#CC3CCCCC3)cc(-c3ccnc4[nH]ccc34)cc12` [Example 204, 7-(Cyclohexylethynyl)-5-(1H-pyrrolo[2,3-b]pyridin-4-yl)-1H-indazol-3-amine]: it took 13.5 µM to reach half-maximal inhibition (IC50).

On to `CC(C)(O)C#Cc1cc(-c2ccnc3[nH]ccc23)cc2c(N)n[nH]c12` [Example 206, 4-(3-Amino-5-(1H-pyrrolo[2,3-b]pyridin-4-yl)-1H-indazol-7-yl)-2-methylbut-3-yn-2-ol], for which half-maximal inhibition (IC50) required 0.294 µM.

`Nc1n[nH]c2c(C#CCCCN3CCOCC3)cc(-c3ccnc4[nH]ccc34)cc12` [Example 210, 7-(5-Morpholinopent-1-yn-1-yl)-5-(1H-pyrrolo[2,3-b]pyridin-4-yl)-1H-indazol-3-amine] registered an IC50 of 1.03 µM.

As for `Nc1n[nH]c2c(C#CCCCN3CCCCC3)cc(-c3ccnc4[nH]ccc34)cc12` [Example 212, 7-(5-(Piperidin-1-yl)pent-1-yn-1-yl)-5-(1H-pyrrolo[2,3-b]pyridin-4-yl)-1H-indazol-3-amine], 1.14 µM corresponded to half-maximal inhibition (IC50).

As for `Nc1n[nH]c2ccc(-c3ccnc4[nH]c(C5CC5)cc34)cc12` [Example 218, 5-(2-Cyclopropyl-1H-pyrrolo[2,3-b]pyridin-4-yl)-1H-indazol-3-amine], the IC50 was 0.017 µM.

For the compound `Nc1n[nH]c2ccc(-c3ccnc4[nH]c(C5CCCCC5)cc34)cc12` [Example 219, 5-(2-Cyclohexyl-1H-pyrrolo[2,3-b]pyridin-4-yl)-1H-indazol-3-amine], 0.28 µM corresponded to half-maximal inhibition (IC50).

`CC(C)(C)Cc1cc2c(-c3ccc4[nH]nc(N)c4c3)ccnc2[nH]1` [Example 220, 5-(2-Neopentyl-1H-pyrrolo[2,3-b]pyridin-4-yl)-1H-indazol-3-amine] returned an IC50 of 0.483 µM.

Compound `Nc1n[nH]c2ccc(-c3ccnc4[nH]c(CC5CCCCC5)cc34)cc12` [Example 221, 5-(2-(Cyclohexylmethyl)-1H-pyrrolo[2,3-b]pyridin-4-yl)-1H-indazol-3-amine] gave an IC50 of 0.655 µM.

As to `Nc1n[nH]c2ccc(-c3ccnc4[nH]c(CCC5CCCCC5)cc34)cc12` [Example 222, 5-(2-(2-Cyclohexylethyl)-1H-pyrrolo[2,3-b]pyridin-4-yl)-1H-indazol-3-amine], the IC50 amounted to 0.268 µM.

`Nc1n[nH]c2ccc(-c3ccnc4[nH]c(CO)cc34)cc12` [Example 224] yielded an IC50 of 0.028 µM.

Still in this assay, the particulars now being: Life Technologies assay.
`CC(C)(C)C#Cc1c(-c2ccc3[nH]nc(N)c3c2)ccnc1N` [Example 72, 5-(2-Amino-3-(3,3-dimethylbut-1-yn-1-yl)pyridine-4-yl)-1H-indazol-3-amine]: the IC50 was found to be 0.065 µM.

In turn, `Nc1nccc(-c2ccc3[nH]nc(N)c3c2)c1C#CC1CCCC1` [Example 73, 5-(2-Amino-3-(cyclopentylethynyl)pyridine-4-yl)-1H-indazol-3-amine] registered an IC50 of 0.206 µM.

In turn, `Nc1nccc(-c2ccc3[nH]nc(N)c3c2)c1C#CC1CCCCC1` [Example 74, 5-(2-Amino-3-(cyclohexylethynyl)pyridine-4-yl)-1H-indazol-3-amine] yielded an IC50 of 0.342 µM.

With `Nc1nccc(-c2ccc3[nH]nc(N)c3c2)c1C#Cc1ccccc1` [Example 75, 5-(2-Amino-3-(phenylethynyl)pyridine-4-yl)-1H-indazol-3-amine], the IC50 is 0.101 µM.

The compound `Nc1nccc(-c2ccc3[nH]nc(N)c3c2)c1C#CCO` [Example 83, 3-(2-Amino-4-(3-amino-1H-indazol-5-yl)pyridine-3-yl)prop-2-yn-1-ol] showed an IC50 of 0.036 µM.

In turn, `Nc1nccc(-c2ccc3[nH]nc(N)c3c2)c1C#CCCO` [Example 84, 4-(2-Amino-4-(3-amino-1H-indazol-5-yl)pyridine-3-yl)but-3-yn-1-ol] gave an IC50 of 0.053 µM.

As for `Nc1nccc(-c2ccc3[nH]nc(N)c3c2)c1C#CCCCO` [Example 85, 5-(2-Amino-4-(3-amino-1H-indazol-5-yl)pyridine-3-yl)pent-4-yn-1-ol], the IC50 was determined as 0.025 µM.

`CC(C)(O)C#Cc1c(-c2ccc3[nH]nc(N)c3c2)ccnc1N` [Example 87, 4-(2-Amino-4-(3-amino-1H-indazol-5-yl)pyridine-3-yl)-2-methylbut-3-yn-2-ol] came in with an IC50 of 0.036 µM.

`CC(C)(C)OCC#Cc1c(-c2ccc3[nH]nc(N)c3c2)ccnc1N` [Example 88, 5-(2-Amino-3-(3-(tert-butoxy)prop-1-yn-1-yl)pyridine-4-yl)-1H-indazol-3-amine] displayed an IC50 of 0.442 µM.

The compound `Nc1nccc(-c2ccc3[nH]nc(N)c3c2)c1C#CC1(O)CCCCC1` [Example 90, 1-((2-Amino-4-(3-amino-1H-indazol-5-yl)pyridine-3-yl)ethynyl)cyclohexan-1-ol] gave an IC50 of 0.205 µM.

With `Nc1nccc(-c2ccc3[nH]nc(N)c3c2)c1C#CC1(O)CCCCCC1` [Example 91, 1-((2-Amino-4-(3-amino-1H-indazol-5-yl)pyridine-3-yl)ethynyl)cycloheptan-1-ol], the midpoint of inhibition, the IC50, lay at 0.505 µM.

Compound `CC(C)(N)C#Cc1c(-c2ccc3[nH]nc(N)c3c2)ccnc1N` [Example 92, 5-(2-Amino-3-(3-amino-3-methylbut-1-yn-1-yl)pyridin-4-yl)-1H-indazol-3-amine] showed an IC50 of 0.087 µM.

Compound `Nc1nccc(-c2ccc3[nH]nc(N)c3c2)c1C#CCCN1CCCCC1` [Example 93, 5-(2-Amino-3-(4-(piperidin-1-yl)but-1-yn-1-yl)pyridin-4-yl)-1H-indazol-3-amine] had an IC50 of 0.254 µM.

`Nc1nccc(-c2ccc3[nH]nc(N)c3c2)c1C#CCCCN1CCCCC1` [Example 95, 5-(2-Amino-3-(5-(piperidin-1-yl)pent-1-yn-1-yl)pyridin-4-yl)-1H-indazol-3-amine] had an IC50 of 0.545 µM.

Regarding `Nc1nccc(-c2ccc3[nH]nc(N)c3c2)c1C#CCCCN1CCOCC1` [Example 96, 5-(2-Amino-3-(5-morpholinopent-1-yn-1-yl)pyridin-4-yl)-1H-indazol-3-amine], the IC50 turned out to be 0.705 µM.

Take `Nc1nccc(-c2ccc3[nH]nc(N)c3c2)c1C#CCCC(=O)N1CCOCC1` [Example 99, 5-(2-Amino-4-(3-amino-1H-indazol-5-yl)pyridine-3-yl)-1-morpholinopent-4-yn-1-one]: the IC50 was determined as 0.264 µM.

In turn, `Nc1cc(-c2cc(-c3ccccc3)c3[nH]nc(N)c3c2)ccn1` [Example 104, 5-(2-Aminopyridin-4-yl)-7-phenyl-1H-indazol-3-amine] had an IC50 of 0.162 µM.

`Nc1cc(-c2cc(-c3ccoc3)c3[nH]nc(N)c3c2)ccn1` [Example 129, 5-(2-Aminopyridin-4-yl)-7-(furan-3-yl)-1H-indazol-3-amine] showed an IC50 of 0.135 µM.

Compound `CC(C)(O)C#Cc1cc(-c2ccnc(N)c2)cc2c(N)n[nH]c12` [Example 140, 4-(3-Amino-5-(2-aminopyridin-4-yl)-1H-indazol-7-yl)-2-methylbut-3-yn-2-ol] registered an IC50 of 3.09 µM.

Usually IC50 stands for the concentration that gives 50% inhibition. Low values mean greater potency in that assay, high ones weaker potency in that assay.

Values taken from patent US20250304576A1 (Cancer Research Technology Limited, priority 2022, published 2025).
